Measured values as given in patent publication US11109593B2, “Isoxazolin-5-one derivative and herbicide containing same as active ingredient” (HOKKO CHEMICAL INDUSTRY CO., LTD., priority 2017, dated 2021).

Experiments:
Assay type in all cases: in vivo
Echinochloa crus-galli [1] = assay: Test Example 1: herbicidal effect test by treatment of rice paddy soil (immediately after seeding); conditions: 120 g/10a active ingredient, dry weight vs untreated area, 14 days after treatment
In short: (§1)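 Puddled, fertilized (N:P:K=17:17:17) paddy soil in Wagner pots; seeds sown 0–1 cm deep, flooded to about 3 cm. Emulsifiable formulations diluted in water and dropped into the water immediately after seeding at 120 g active ingredient per 10 ares; greenhouse. Herbicidal rate from dry weight vs untreated at 14 days.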

Scirpus juncoides [2] = assay: as above; conditions: 120 g/10a active ingredient, dry weight vs untreated area, 14 days after treatment
In short: as §1

[3] = system: broad leaf weeds (Lindernia pyxidaria and Monochoria vaginalis); assay: as above; conditions: 120 g/10a active ingredient, dry weight vs untreated area, 14 days after treatment
In short: as §1

Echinochloa crus-galli [4] = assay: Test Example 2: herbicidal effect test by treatment during growing period in paddy rice cultivation (seven days after seeding); conditions: 120 g/10a active ingredient, assessed 14 days after treatment, dry weight vs untreated area
In short: (§2)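 Seeds sown 0–1 cm deep in puddled, fertilised paddy soil with about 3 cm standing water in a glass greenhouse. Diluted emulsion dropped into the water seven days after seeding at 120 g active ingredient per 10 ares. Herbicidal rate (%) from mean dry weight vs untreated, duplicate, 14 days after treatment.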

Scirpus juncoides [5] = assay: as above; conditions: 120 g/10a active ingredient, assessed 14 days after treatment, dry weight vs untreated area
In short: as §2

[6] = system: broad leaf weeds (Lindernia pyxidaria and Monochoria vaginalis); assay: as above; conditions: 120 g/10a active ingredient, assessed 14 days after treatment, dry weight vs untreated area
In short: as §2

Amaranthus viridis [7] = assay: Test Example 3: herbicidal effect test by treatment of dry field farming soil (one day after seeding); conditions: 120 g/10a active ingredient, evaluated 14 days after treatment
In short: (§3)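 Alluvial dry-field soil in pots, top 1 cm mixed with 20 seeds per weed species. One day after seeding, the water-diluted emulsion was sprayed onto the soil surface at 100 L per 10 ares (120 g active ingredient per 10 ares). Duplicate pots; herbicidal rate (%) from plant dry weight versus untreated, 14 days after treatment.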

Chenopodium album [8] = assay: as above; conditions: 120 g/10a active ingredient, evaluated 14 days after treatment
In short: as §3

Echinochloa crus-galli [9] = assay: as above; conditions: 120 g/10a active ingredient, evaluated 14 days after treatment
In short: as §3

southern crabgrass [10] = assay: as above; conditions: 120 g/10a active ingredient, evaluated 14 days after treatment
In short: as §3

Amaranthus viridis [11] = assay: Test Example 4: herbicidal effect test by treatment of leave and stem in dry field farming (seven days after seeding); conditions: 120 g/10a active ingredient; emulsion sprayed seven days after seeding; evaluated 14 days after treatment
In short: (§4)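 Weeds were seeded at 20 seeds per species into the top 1 cm of alluvial upland soil in pots, then sprayed 7 days after seeding with water-diluted emulsifiable concentrate at 100 L/10 a, giving 120 g active ingredient/10 a. Duplicate pots; herbicidal rate (%) was 14 days post-treatment, from dry weight versus untreated.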

Chenopodium album [12] = assay: as above; conditions: 120 g/10a active ingredient; emulsion sprayed seven days after seeding; evaluated 14 days after treatment
In short: as §4

Echinochloa crus-galli [13] = assay: as above; conditions: 120 g/10a active ingredient; emulsion sprayed seven days after seeding; evaluated 14 days after treatment
In short: as §4

southern crabgrass [14] = assay: as above; conditions: 120 g/10a active ingredient; emulsion sprayed seven days after seeding; evaluated 14 days after treatment
In short: as §4

## Cc1c(Cc2ccccc2NS(=O)(=O)C(F)(F)F)c(=O)on1C(c1ccccc1)C(C)C (stereo not drawn) [Compound 1-213]
Echinochloa crus-galli [1]
  Herbicidal rate (%) Echinochloa crus-galli: 100%
Scirpus juncoides [2]
  Herbicidal rate (%) Scirpus juncoides: 90%
[3]
  Herbicidal rate (%) Lindernia pyxidaria: 90%
  Herbicidal rate (%) Monochoria vaginalis: 90%
Echinochloa crus-galli [4]
  Herbicidal rate (%) Echinochloa crus-galli: 90%
Scirpus juncoides [5]
  Herbicidal rate (%) Scirpus juncoides: 80%
[6]
  Herbicidal rate (%) Lindernia pyxidaria: 70%
  Herbicidal rate (%) Monochoria vaginalis: 80%
Amaranthus viridis [7]
  herbicidal rate, Amaranthus viridis: 100%
Chenopodium album [8]
  herbicidal rate, Chenopodium album: 100%
Echinochloa crus-galli [9]
  herbicidal rate, Echinochloa crus-galli: 100%
Southern crabgrass [10]
  herbicidal rate, southern crabgrass: 100%
Amaranthus viridis [11]
  herbicidal effect (herbicidal rate), Amaranthus viridis: 40%
Chenopodium album [12]
  herbicidal effect (herbicidal rate), Chenopodium album: 50%
Echinochloa crus-galli [13]
  herbicidal effect (herbicidal rate), Echinochloa crus-galli: 90%
Southern crabgrass [14]
  herbicidal effect (herbicidal rate), southern crabgrass: 90%

## C#CCn1oc(=O)c(Cc2ccccc2NS(=O)(=O)C(F)(F)F)c1C [Compound 1-138]
Echinochloa crus-galli [1]
  Herbicidal rate (%) Echinochloa crus-galli: 90%
Scirpus juncoides [2]
  Herbicidal rate (%) Scirpus juncoides: 90%
[3]
  Herbicidal rate (%) Lindernia pyxidaria: 100%
  Herbicidal rate (%) Monochoria vaginalis: 100%
Echinochloa crus-galli [4]
  Herbicidal rate (%) Echinochloa crus-galli: 90%
Scirpus juncoides [5]
  Herbicidal rate (%) Scirpus juncoides: 80%
[6]
  Herbicidal rate (%) Lindernia pyxidaria: 80%
  Herbicidal rate (%) Monochoria vaginalis: 80%
Amaranthus viridis [7]
  herbicidal rate, Amaranthus viridis: 0%
Chenopodium album [8]
  herbicidal rate, Chenopodium album: 0%
Echinochloa crus-galli [9]
  herbicidal rate, Echinochloa crus-galli: 90%
Southern crabgrass [10]
  herbicidal rate, southern crabgrass: 90%
Amaranthus viridis [11]
  herbicidal effect (herbicidal rate), Amaranthus viridis: 40%
Chenopodium album [12]
  herbicidal effect (herbicidal rate), Chenopodium album: 0%
Echinochloa crus-galli [13]
  herbicidal effect (herbicidal rate), Echinochloa crus-galli: 80%
Southern crabgrass [14]
  herbicidal effect (herbicidal rate), southern crabgrass: 80%

## CCC(=O)N(c1ccccc1Cc1c(C)n(C(C)COC)oc1=O)S(=O)(=O)C(F)(F)F (stereo not drawn) [Compound 1-319]
Echinochloa crus-galli [1]
  Herbicidal rate (%) Echinochloa crus-galli: 90%
Scirpus juncoides [2]
  Herbicidal rate (%) Scirpus juncoides: 90%
[3]
  Herbicidal rate (%) Lindernia pyxidaria: 90%
  Herbicidal rate (%) Monochoria vaginalis: 90%
Echinochloa crus-galli [4]
  Herbicidal rate (%) Echinochloa crus-galli: 90%
Scirpus juncoides [5]
  Herbicidal rate (%) Scirpus juncoides: 90%
[6]
  Herbicidal rate (%) Lindernia pyxidaria: 90%
  Herbicidal rate (%) Monochoria vaginalis: 90%
Amaranthus viridis [7]
  herbicidal rate, Amaranthus viridis: 90%
Chenopodium album [8]
  herbicidal rate, Chenopodium album: 90%
Echinochloa crus-galli [9]
  herbicidal rate, Echinochloa crus-galli: 90%
Southern crabgrass [10]
  herbicidal rate, southern crabgrass: 90%
Amaranthus viridis [11]
  herbicidal effect (herbicidal rate), Amaranthus viridis: 40%
Chenopodium album [12]
  herbicidal effect (herbicidal rate), Chenopodium album: 40%
Echinochloa crus-galli [13]
  herbicidal effect (herbicidal rate), Echinochloa crus-galli: 90%
Southern crabgrass [14]
  herbicidal effect (herbicidal rate), southern crabgrass: 90%

## CCOC(=O)N(c1ccccc1Cc1c(C)n(C(C)CC)oc1=O)S(=O)(=O)C(F)(F)F (stereo not drawn) [Compound 1-605]
Echinochloa crus-galli [1]
  Herbicidal rate (%) Echinochloa crus-galli: 90%
Scirpus juncoides [2]
  Herbicidal rate (%) Scirpus juncoides: 90%
[3]
  Herbicidal rate (%) Lindernia pyxidaria: 90%
  Herbicidal rate (%) Monochoria vaginalis: 90%
Echinochloa crus-galli [4]
  Herbicidal rate (%) Echinochloa crus-galli: 90%
Scirpus juncoides [5]
  Herbicidal rate (%) Scirpus juncoides: 90%
[6]
  Herbicidal rate (%) Lindernia pyxidaria: 90%
  Herbicidal rate (%) Monochoria vaginalis: 90%
Amaranthus viridis [7]
  herbicidal rate, Amaranthus viridis: 90%
Chenopodium album [8]
  herbicidal rate, Chenopodium album: 90%
Echinochloa crus-galli [9]
  herbicidal rate, Echinochloa crus-galli: 90%
Southern crabgrass [10]
  herbicidal rate, southern crabgrass: 90%
Amaranthus viridis [11]
  herbicidal effect (herbicidal rate), Amaranthus viridis: 40%
Chenopodium album [12]
  herbicidal effect (herbicidal rate), Chenopodium album: 40%
Echinochloa crus-galli [13]
  herbicidal effect (herbicidal rate), Echinochloa crus-galli: 90%
Southern crabgrass [14]
  herbicidal effect (herbicidal rate), southern crabgrass: 90%

## CCCC(CC)n1oc(=O)c(Cc2ccccc2NS(=O)(=O)C(F)(F)F)c1C (stereo not drawn) [Compound 1-110]
Echinochloa crus-galli [1]
  Herbicidal rate (%) Echinochloa crus-galli: 100%
Scirpus juncoides [2]
  Herbicidal rate (%) Scirpus juncoides: 100%
[3]
  Herbicidal rate (%) Lindernia pyxidaria: 100%
  Herbicidal rate (%) Monochoria vaginalis: 100%
Echinochloa crus-galli [4]
  Herbicidal rate (%) Echinochloa crus-galli: 100%
Scirpus juncoides [5]
  Herbicidal rate (%) Scirpus juncoides: 80%
[6]
  Herbicidal rate (%) Lindernia pyxidaria: 80%
  Herbicidal rate (%) Monochoria vaginalis: 100%
Amaranthus viridis [7]
  herbicidal rate, Amaranthus viridis: 80%
Chenopodium album [8]
  herbicidal rate, Chenopodium album: 80%
Echinochloa crus-galli [9]
  herbicidal rate, Echinochloa crus-galli: 90%
Southern crabgrass [10]
  herbicidal rate, southern crabgrass: 90%
Amaranthus viridis [11]
  herbicidal effect (herbicidal rate), Amaranthus viridis: 60%
Chenopodium album [12]
  herbicidal effect (herbicidal rate), Chenopodium album: 50%
Echinochloa crus-galli [13]
  herbicidal effect (herbicidal rate), Echinochloa crus-galli: 90%
Southern crabgrass [14]
  herbicidal effect (herbicidal rate), southern crabgrass: 90%

## COCC(C)n1oc(=O)c(Cc2ccccc2N(C(=O)OCc2ccccc2)S(=O)(=O)C(F)(F)F)c1C (stereo not drawn) [Compound 1-790]
Echinochloa crus-galli [1]
  Herbicidal rate (%) Echinochloa crus-galli: 90%
Scirpus juncoides [2]
  Herbicidal rate (%) Scirpus juncoides: 90%
[3]
  Herbicidal rate (%) Lindernia pyxidaria: 90%
  Herbicidal rate (%) Monochoria vaginalis: 90%
Echinochloa crus-galli [4]
  Herbicidal rate (%) Echinochloa crus-galli: 90%
Scirpus juncoides [5]
  Herbicidal rate (%) Scirpus juncoides: 90%
[6]
  Herbicidal rate (%) Lindernia pyxidaria: 90%
  Herbicidal rate (%) Monochoria vaginalis: 90%
Amaranthus viridis [7]
  herbicidal rate, Amaranthus viridis: 90%
Chenopodium album [8]
  herbicidal rate, Chenopodium album: 90%
Echinochloa crus-galli [9]
  herbicidal rate, Echinochloa crus-galli: 90%
Southern crabgrass [10]
  herbicidal rate, southern crabgrass: 90%
Amaranthus viridis [11]
  herbicidal effect (herbicidal rate), Amaranthus viridis: 40%
Chenopodium album [12]
  herbicidal effect (herbicidal rate), Chenopodium album: 40%
Echinochloa crus-galli [13]
  herbicidal effect (herbicidal rate), Echinochloa crus-galli: 90%
Southern crabgrass [14]
  herbicidal effect (herbicidal rate), southern crabgrass: 90%

## Cc1c(Cc2ccccc2N(S(=O)(=O)C(F)(F)F)S(=O)(=O)C(F)(F)F)c(=O)on1CC1(C)CC1 [Compound 1-993]
Echinochloa crus-galli [1]
  Herbicidal rate (%) Echinochloa crus-galli: 100%
Scirpus juncoides [2]
  Herbicidal rate (%) Scirpus juncoides: 100%
[3]
  Herbicidal rate (%) Lindernia pyxidaria: 100%
  Herbicidal rate (%) Monochoria vaginalis: 100%
Echinochloa crus-galli [4]
  Herbicidal rate (%) Echinochloa crus-galli: 90%
Scirpus juncoides [5]
  Herbicidal rate (%) Scirpus juncoides: 90%
[6]
  Herbicidal rate (%) Lindernia pyxidaria: 50%
  Herbicidal rate (%) Monochoria vaginalis: 60%
Amaranthus viridis [7]
  herbicidal rate, Amaranthus viridis: 40%
Chenopodium album [8]
  herbicidal rate, Chenopodium album: 40%
Echinochloa crus-galli [9]
  herbicidal rate, Echinochloa crus-galli: 90%
Southern crabgrass [10]
  herbicidal rate, southern crabgrass: 80%
Amaranthus viridis [11]
  herbicidal effect (herbicidal rate), Amaranthus viridis: 40%
Chenopodium album [12]
  herbicidal effect (herbicidal rate), Chenopodium album: 40%
Echinochloa crus-galli [13]
  herbicidal effect (herbicidal rate), Echinochloa crus-galli: 60%
Southern crabgrass [14]
  herbicidal effect (herbicidal rate), southern crabgrass: 40%

## Cc1c(Cc2ccccc2N(S(C)(=O)=O)S(=O)(=O)C(F)(F)F)c(=O)on1CC(C)C [Compound 1-892]
Echinochloa crus-galli [1]
  Herbicidal rate (%) Echinochloa crus-galli: 100%
Scirpus juncoides [2]
  Herbicidal rate (%) Scirpus juncoides: 90%
[3]
  Herbicidal rate (%) Lindernia pyxidaria: 90%
  Herbicidal rate (%) Monochoria vaginalis: 90%
Echinochloa crus-galli [4]
  Herbicidal rate (%) Echinochloa crus-galli: 90%
Scirpus juncoides [5]
  Herbicidal rate (%) Scirpus juncoides: 90%
[6]
  Herbicidal rate (%) Lindernia pyxidaria: 80%
  Herbicidal rate (%) Monochoria vaginalis: 80%
Amaranthus viridis [7]
  herbicidal rate, Amaranthus viridis: 90%
Chenopodium album [8]
  herbicidal rate, Chenopodium album: 80%
Echinochloa crus-galli [9]
  herbicidal rate, Echinochloa crus-galli: 90%
Southern crabgrass [10]
  herbicidal rate, southern crabgrass: 90%
Amaranthus viridis [11]
  herbicidal effect (herbicidal rate), Amaranthus viridis: 40%
Chenopodium album [12]
  herbicidal effect (herbicidal rate), Chenopodium album: 40%
Echinochloa crus-galli [13]
  herbicidal effect (herbicidal rate), Echinochloa crus-galli: 50%
Southern crabgrass [14]
  herbicidal effect (herbicidal rate), southern crabgrass: 40%

## CCCCC(CC)Cn1oc(=O)c(Cc2ccccc2N(S(=O)(=O)C(F)(F)F)S(=O)(=O)C(F)(F)F)c1C (stereo not drawn) [Compound 1-980]
Echinochloa crus-galli [1]
  Herbicidal rate (%) Echinochloa crus-galli: 100%
Scirpus juncoides [2]
  Herbicidal rate (%) Scirpus juncoides: 90%
[3]
  Herbicidal rate (%) Lindernia pyxidaria: 100%
  Herbicidal rate (%) Monochoria vaginalis: 80%
Echinochloa crus-galli [4]
  Herbicidal rate (%) Echinochloa crus-galli: 100%
Scirpus juncoides [5]
  Herbicidal rate (%) Scirpus juncoides: 80%
[6]
  Herbicidal rate (%) Lindernia pyxidaria: 80%
  Herbicidal rate (%) Monochoria vaginalis: 80%
Amaranthus viridis [7]
  herbicidal rate, Amaranthus viridis: 40%
Chenopodium album [8]
  herbicidal rate, Chenopodium album: 40%
Echinochloa crus-galli [9]
  herbicidal rate, Echinochloa crus-galli: 40%
Southern crabgrass [10]
  herbicidal rate, southern crabgrass: 60%
Amaranthus viridis [11]
  herbicidal effect (herbicidal rate), Amaranthus viridis: 40%
Chenopodium album [12]
  herbicidal effect (herbicidal rate), Chenopodium album: 40%
Echinochloa crus-galli [13]
  herbicidal effect (herbicidal rate), Echinochloa crus-galli: 60%
Southern crabgrass [14]
  herbicidal effect (herbicidal rate), southern crabgrass: 40%
